Like-named read-outs stand apart in the source and are kept apart here. Starred links: 1 amine or outer side, 2 acyl side, 3 side chain; linkers in the order of their positions; H or OH if unused. Positions of bridges follow the written chain, without caps; N, C: chain ends. Non-standard residues stand in square brackets, D forms with d. Residues, ends and D or L forms follow the SMILES beside them. Chains are numbered I, II in the order given. No end group written: not given here. ξ: configuration not given here. *: point of attachment. Succinimide(1-C2H4CO,3-yl) = O=C1CC([*:1])C(=O)N1CCC(=O)[*:2]; Biotin = O=C1N[C@H]2[C@H](CS[C@H]2CCCCC(=O)*)N1; X2 = O=C1NC2CS[C@@H](CCCCC(=O)*)C2N1; X1 = O=C1NC2CSC(CCCCC(=O)*)C2N1; ξK = NCCCCC(N)C(=O)O; ξC = NC(CS)C(=O)O; ξS = NC(CO)C(=O)O; tBu = CC(C)(C)*
Experiments:
MSSA [1] = tested on: MSSA
MSSA [2] = experiment: Minimum bactericidal concentration (MBC) / bactericidal activity against MSSA; format: cell-based, S. aureus; settings: for MBC (μM) (MSSA): 14 h
red blood cell [3] = tested on: red blood cell
in vitro = settings: mouse, serum
red blood cell [4] = experiment: Hemolysis (H50); settings: Table 3

Compound | MIC (μM) (MSSA) (MSSA [1]) [µM] | MBC (μM) (MSSA) (MSSA [2]) [µM] | H50 (red blood cell [3]) [µM] | other results
N=C(N)NCCC[C@H](NC(=O)CNC(=O)[C@H](CO)NC(=O)[C@@H](N)CS)C(=O)N[C@H](CCCNC(=N)N)C(=O)N[C@H](CCCCN)C(=O)N[C@H](CCCNC(=N)N)C(=O)N1CCC[C@H]1C(=O)N[C@H](CCCNC(=N)N)C(=O)N[C@H](CCCNC(=N)N)C(=O)N[C@H](CCCCN)C(=O)N[C@H](CCCNC(=N)N)C(=O)N1CCC[C@H]1C(=O)N[C@@H](CCCNC(=N)N)C(=O)N[C@H](CCCNC(=N)N)C(=O)N[C@H](CCCCN)C(=O)N[C@@H](CCCNC(=N)N)C(=O)N1CCC[C@H]1C(=O)N[C@@H](CCCNC(=N)N)C(=O)N[C@H](CCCNC(=N)N)C(=O)O [D2, CSGRrkrPrrkrPRrkRPRr] (H-CSGR[dR][dK][dR]P[dR][dR][dK][dR]PR[dR][dK]RPR[dR]-OH; N-terminus and C-terminus assumed) | <50 | – | – | –
N=C(N)NCCC[C@H](NC(=O)[C@H](CCCNC(=N)N)NC(=O)[C@@H](CCCCN)NC(=O)[C@@H](CCCCN)NC(=O)CNC(=O)[C@H](CO)NC(=O)[C@@H](N)CS)C(=O)N[C@@H](Cc1c[nH]cn1)C(=O)N[C@@H](Cc1c[nH]cn1)C(=O)N[C@H](CCCNC(=N)N)C(=O)N[C@H](CCCNC(=N)N)C(=O)N[C@H](CCCCN)C(=O)N[C@H](CCCCN)C(=O)N[C@@H](CCCNC(=N)N)C(=O)N[C@H](CCCNC(=N)N)C(=O)N[C@@H](Cc1c[nH]cn1)C(=O)N[C@@H](Cc1c[nH]cn1)C(=O)N[C@H](CCCNC(=N)N)C(=O)N[C@H](CCCNC(=N)N)C(=O)N[C@@H](CCCCN)C(=O)O [D1, CSGkkRRHHrrkkRrHHrrK] (H-CSG[dK][dK]RRHH[dR][dR][dK][dK]R[dR]HH[dR][dR]K-OH; N-terminus and C-terminus assumed) | <50 | – | – | –
I: CSG[dK][dK]RRHH[dR][dR][dK][dK]R[dR]HH[dR][dR]K / II: CSG[dK][dK]RRHH[dR][dR][dK][dK]R[dR]HH[dR][dR]K / III: [ξK]G[ξS][ξK][ξS]G[ξK](X2)G[ξC](tBu)-NH2 (linker I:1-III:1, II:1-III:N via Succinimide(1-C2H4CO,3-yl)) [D1-D1-Sc0, CSGkkRRHHrrkkRrHHrrK-Sc0-CSGkkRRHHrrkkRrHHrrK] | 10 | 5 | >500 | –
I: CSGR[dR][dK][dR]P[dR][dR][dK][dR]PR[dR][dK]RPR[dR] / II: CSGR[dR][dK][dR]P[dR][dR][dK][dR]PR[dR][dK]RPR[dR] / III: [ξK]G[ξS][ξK][ξS]G[ξK](X2)G[ξC](tBu)-NH2 (linker I:1-III:1, II:1-III:N via Succinimide(1-C2H4CO,3-yl)) [D2-D2-Sc0, CSGRrkrPrrkrPRrkRPRr-Sc0-CSGRrkrPrrkrPRrkRPRr] | 5 | 5 | >500 | –
I: Ac-[dR]W[dR][dR]H[dK]H[dF][dK][dR]PH[dR][dK]H[dK][dR]GSC-NH2 / II: Ac-[dR]W[dR][dR]H[dK]H[dF][dK][dR]PH[dR][dK]H[dK][dR]GSC-NH2 / III: [ξK]G[ξS][ξK][ξS]G[ξK](X2)G[ξC](tBu)-NH2 (linker I:20-III:1, II:20-III:N via Succinimide(1-C2H4CO,3-yl)) [Ly-Ly-Sc0] | 12.5 | 12.5 | >500 | MIC (μM) MRSA (USA300) (MRSA): 6.25 µM
I: D[dR]IFH[dK]MQH[dK]PY[dK]I[dK][dK][dR]GSGGGK[ξK](X1)-NH2 / II: [dR]W[dR][dR]H[dK]HF[dK][dR]PH[dR][dK]H[dK][dR]GSG (amide I:23-II:C) [Synbody (4)] | – | – | – | bactericidal activity against MSSA (in words) (MSSA [2]): some bactericidal activity against MSSA; half-life (in vitro): ~2.17 h; MIC, MSSA (n = 3) (MSSA [1]): 2.2 µM; MIC, MRSA (n = 2) (MRSA): 3.3 µM; H50 = concentration that causes 50% hemolysis (red blood cell [3]): >200 µM
I: CSGEMWAIMPPIIKPDNKGH-NH2 / II: CSGR[dR][dK][dR]P[dR][dR][dK][dR]PR[dR][dK]RPR[dR]-NH2 / III: KGSKSGK(Biotin)GC(tBu)-NH2 (linker I:1-III:1, II:1-III:N via Succinimide(1-C2H4CO,3-yl)) [D2-88-SC0] | – | – | – | H50 (red blood cell [4]): >500 µM

From US9757472B2, “Proteas stabilized antibacterial peptides for S. aureus” (Arizona Board of Regents on Behalf of Arizona State …, priority 2014, dated 2017)
